Results on 17 compounds are retold here after US8877778B2, “Benzofurane compounds” (Hoffmann-La Roche Inc., priority 2010, dated 2014).

One data set deals with human D2 receptor (Homo sapiens (Human), UniProt P14416). Briefly: Radioligand binding ([3H]-spiperone) to cloned receptors expressed in HEK-293 EBNA cells. The settings on record: HEK293 EBNA cell membranes expressing human D2. Put shortly:
(§1)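 Membranes from transiently transfected HEK293 EBNA cells incubated 1 h at RT with ten compound concentrations (10 μM–0.1 nM). D2/D3: [3H]-spiperone ~0.7/0.5 nM, Tris–NaCl–Mg/Ca buffer pH 7.4; 5-HT2A: [3H]-ketanserin 1.1 nM, Tris–MgCl2–EGTA pH 7.4.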

In the next data set the target is human D3 receptor (Homo sapiens (Human), UniProt P35462). Described as above. The settings on record: HEK293 EBNA cell membranes expressing human D3. In outline:
as §1

The next data set has as its target human 5-HT2A receptor (Homo sapiens (Human), UniProt P28223). Put plainly: Radioligand binding ([3H]-ketanserin) to cloned receptors expressed in HEK-293 EBNA cells. The conditions noted are these: HEK293 EBNA cell membranes expressing human 5-HT2A. Put shortly:
as §1

human D2 receptor, sequence (P14416 whole entry): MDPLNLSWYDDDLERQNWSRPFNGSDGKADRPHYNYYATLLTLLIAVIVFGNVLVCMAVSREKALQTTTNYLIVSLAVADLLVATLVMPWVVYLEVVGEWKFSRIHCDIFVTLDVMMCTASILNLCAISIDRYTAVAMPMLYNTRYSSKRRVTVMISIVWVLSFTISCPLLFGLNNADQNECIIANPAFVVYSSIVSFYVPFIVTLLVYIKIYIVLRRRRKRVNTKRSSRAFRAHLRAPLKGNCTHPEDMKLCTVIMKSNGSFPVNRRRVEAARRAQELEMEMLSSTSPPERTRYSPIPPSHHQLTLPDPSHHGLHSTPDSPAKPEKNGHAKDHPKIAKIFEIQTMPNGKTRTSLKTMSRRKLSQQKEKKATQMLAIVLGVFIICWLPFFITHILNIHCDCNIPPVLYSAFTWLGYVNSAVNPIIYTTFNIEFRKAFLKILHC
human 5-HT2A receptor, sequence (P28223 whole entry): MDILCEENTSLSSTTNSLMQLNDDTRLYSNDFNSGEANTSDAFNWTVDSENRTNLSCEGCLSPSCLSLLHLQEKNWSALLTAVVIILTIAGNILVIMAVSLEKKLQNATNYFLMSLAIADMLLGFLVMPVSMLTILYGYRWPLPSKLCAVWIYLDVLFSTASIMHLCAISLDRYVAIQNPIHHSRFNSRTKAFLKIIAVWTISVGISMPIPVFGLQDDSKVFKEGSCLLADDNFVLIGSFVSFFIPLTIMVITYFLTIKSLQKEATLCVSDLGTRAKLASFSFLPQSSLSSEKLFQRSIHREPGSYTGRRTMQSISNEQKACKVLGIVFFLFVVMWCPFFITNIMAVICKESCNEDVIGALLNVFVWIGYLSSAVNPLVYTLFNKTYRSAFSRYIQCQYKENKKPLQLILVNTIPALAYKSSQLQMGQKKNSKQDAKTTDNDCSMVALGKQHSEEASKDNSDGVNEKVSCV
human D3 receptor, sequence (P35462 whole entry): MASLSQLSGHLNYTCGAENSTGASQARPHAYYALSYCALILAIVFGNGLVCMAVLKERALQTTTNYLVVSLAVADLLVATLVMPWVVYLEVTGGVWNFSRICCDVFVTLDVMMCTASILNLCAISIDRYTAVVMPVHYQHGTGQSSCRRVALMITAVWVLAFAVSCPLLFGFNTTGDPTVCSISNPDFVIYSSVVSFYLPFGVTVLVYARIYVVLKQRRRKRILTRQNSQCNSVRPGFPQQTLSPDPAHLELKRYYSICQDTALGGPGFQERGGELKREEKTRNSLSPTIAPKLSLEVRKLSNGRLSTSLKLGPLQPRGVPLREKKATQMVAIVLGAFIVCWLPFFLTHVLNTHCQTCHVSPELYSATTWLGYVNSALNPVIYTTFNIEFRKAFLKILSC

`CC(C)(C)CC(=O)N[C@H]1CC[C@H](CCN2CCC(c3cccc4c3CCO4)CC2)CC1` [Example 59, trans-N-(4-{2-[4-(2,3-Dihydro-benzofuran-4-yl)-piperidin-1-yl]ethyl}-cyclohexyl)-3,3-dimethyl-butyramide] showed a melting point of 193 °C. Further, the Ki at human D2 receptor is 394 nM. In addition, the Ki at human D3 receptor worked out at 6 nM. In addition, the Ki at human 5-HT2A receptor was 54.1 nM.
The compound `O=C(CC1CCC1)N[C@H]1CC[C@H](CCN2CCC(c3cccc4c3CCO4)CC2)CC1` [Example 60, trans-2-Cyclobutyl-N-(4-{2-[4-(2,3-dihydro-benzofuran-4-yl)-piperidin-1-yl]-ethyl}-cyclohexyl)-acetamide] came in with a melting point of 196 °C. Also, the Ki on human D2 receptor amounted to 301 nM. The Ki at human D3 receptor is 6.1 nM. Also, at human 5-HT2A receptor, the Ki stood at 44.4 nM.
In turn, `O=C(N[C@H]1CC[C@H](CCN2CCC(c3cccc4c3CCO4)CC2)CC1)C1CC1(F)F` (stereo partly drawn) [Example 61, 2,2-Difluoro-cyclopropanecarboxylic acid trans-(4-{2-[4-(2,3-dihydro-benzofuran-4-yl)-piperidin-1-yl]-ethyl}-cyclohexyl)-amide] had a melting point of 199 °C. In addition, the Ki on human D2 receptor is 236 nM. Also, the Ki at human D3 receptor is 9.6 nM. Besides, the Ki at human 5-HT2A receptor came out at 51.9 nM.
The compound `CN(C)C(=O)CCC(=O)N[C@H]1CC[C@H](CCN2CCC(c3cccc4c3CCO4)CC2)CC1` [Example 63, trans-N-(4-{2-[4-(2,3-Dihydro-benzofuran-4-yl)-piperidin-1-yl]ethyl}-cyclohexyl)-N′,N′-dimethyl-succinamide] registered a melting point of 205 °C. For the same compound, the Ki on human D2 receptor worked out at 1060 nM. In addition, the Ki on human D3 receptor stood at 15.5 nM. Moreover, the Ki at human 5-HT2A receptor was found to be 89.6 nM.
Take `CC(=O)N[C@H]1CC[C@H](CCN2CCC(c3ccc(F)c4occc34)CC2)CC1` [Example 64, trans-N-(4-{2-[4-(7-Fluoro-benzofuran-4-yl)-piperidin-1-yl]-ethyl}-cyclohexyl)-acetamide]: the melting point was determined as 203.5 °C. Moreover, the Ki on human D2 receptor came to 404 nM. Also, at human D3 receptor, the inhibition constant Ki is 9.72 nM. Further, the Ki at human 5-HT2A receptor was 33.3 nM.
On the same counts, the results for `O=C(N[C@H]1CC[C@H](CCN2CCC(c3ccc(F)c4occc34)CC2)CC1)C1CCOCC1` [Example 65, Tetrahydro-pyran-4-carboxylic acid trans-(4-{2-[4-(7-fluoro-benzofuran-4-yl)-piperidin-1-yl]-ethyl}-cyclohexyl)-amide] are 208 °C, 361 nM, 34 nM and 11.6 nM.
With `O=C(CC1CCOCC1)N[C@H]1CC[C@H](CCN2CCC(c3ccc(F)c4occc34)CC2)CC1` [Example 66, trans-N-(4-{2-[4-(7-Fluoro-benzofuran-4-yl)-piperidin-1-yl]-ethyl}-cyclohexyl)-2-(tetrahydro-pyran-4-yl)-acetamide], the melting point is 187.5 °C. In addition, the Ki on human D2 receptor came to 616 nM. Besides, the Ki at human D3 receptor was determined as 20.1 nM. Further, at human 5-HT2A receptor, the Ki was 30.9 nM.
Take `COCCC(=O)N[C@H]1CC[C@H](CCN2CCC(c3ccc(F)c4occc34)CC2)CC1` [Example 67, trans-N-(4-{2-[4-(7-Fluoro-benzofuran-4-yl)-piperidin-1-yl]-ethyl}-cyclohexyl)-3-methoxy-propionamide]: the melting point was 177 °C. For the same compound, the Ki at human D2 receptor amounted to 613 nM. Besides, the Ki on human D3 receptor worked out at 9.28 nM. Also, the Ki at human 5-HT2A receptor worked out at 31 nM.
`O=C(N[C@H]1CC[C@H](CCN2CCC(c3cccc4c3CCO4)CC2)CC1)c1ccc(-n2cccn2)cc1` [Example 68, trans-N-(4-{2-[4-(2,3-Dihydro-benzofuran-4-yl)-piperidin-1-yl]-ethyl}-cyclohexyl)-4-pyrazol-1-yl-benzamide]: the melting point amounted to 258.5 °C. Further, at human D2 receptor, the Ki worked out at 1700 nM. Moreover, the Ki at human D3 receptor is 8.65 nM. Further, the inhibition constant Ki at human 5-HT2A receptor was found to be 27.4 nM.
On the same counts, the results for `Cc1nc(-c2ccc(C(=O)N[C@H]3CC[C@H](CCN4CCC(c5cccc6c5CCO6)CC4)CC3)cc2)no1` [Example 69, trans-N-(4-{2-[4-(2,3-Dihydro-benzofuran-4-yl)-piperidin-1-yl]-ethyl}-cyclohexyl)-4-(5-methyl-[1,2,4]oxadiazol-3-yl)-benzamide] are 256.5 °C, 3730 nM, 14.9 nM and 54.5 nM.
Turning to `CS(=O)(=O)c1ccc(C(=O)N[C@H]2CC[C@H](CCN3CCC(c4cccc5c4CCO5)CC3)CC2)s1` [Example 70, 5-Methanesulfonyl-thiophene-2-carboxylic acid trans-(4-{2-[4-(2,3-dihydro-benzofuran-4-yl)-piperidin-1-yl]-ethyl}-cyclohexyl)-amide], the melting point was 255 °C. The Ki on human D2 receptor worked out at 195 nM. Moreover, the Ki at human D3 receptor was 6.63 nM. Further, the Ki on human 5-HT2A receptor worked out at 31.4 nM.
In turn, `CC(C)(C)c1ccc(C(=O)N[C@H]2CC[C@H](CCN3CCC(c4cccc5c4CCO5)CC3)CC2)cc1` [Example 71, trans-4-tert-Butyl-N-(4-{2-[4-(2,3-dihydro-benzofuran-4-yl)-piperidin-1-yl]-ethyl}-cyclohexyl)-benzamide] displayed a melting point of 208 °C. Also, the “D2 Ki” value at human D2 receptor is “inactive”. The Ki on human D3 receptor amounted to 13.6 nM. Besides, the Ki on human 5-HT2A receptor is 28.6 nM.
As for `CC(C)(O)CC(=O)N[C@H]1CC[C@H](CCN2CCC(c3cccc4c3CCO4)CC2)CC1` [Example 72, trans-N-(4-{2-[4-(2,3-Dihydro-benzofuran-4-yl)-piperidin-1-yl]-ethyl}-cyclohexyl)-3-hydroxy-3-methyl-butyramide], the melting point came to 168 °C. The Ki on human D2 receptor turned out to be 176 nM. Besides, the inhibition constant Ki at human D3 receptor was determined as 6.33 nM. For the same compound, at human 5-HT2A receptor, the Ki was 56.1 nM.
The compound `CCCC(=O)N[C@H]1CC[C@H](CCN2CCC(c3cccc4c3CCO4)CC2)CC1` [Example 73, trans-N-(4-{2-[4-(2,3-Dihydro-benzofuran-4-yl)-piperidin-1-yl]-ethyl}-cyclohexyl)-butyramide] had a melting point of 196 °C. On human D2 receptor, the Ki was 197 nM. In addition, the Ki at human D3 receptor worked out at 5.16 nM. Further, the Ki at human 5-HT2A receptor came to 93.4 nM.
In turn, `O=C(CCC(F)(F)F)N[C@H]1CC[C@H](CCN2CCC(c3cccc4c3CCO4)CC2)CC1` [Example 74, trans-N-(4-{2-[4-(2,3-Dihydro-benzofuran-4-yl)-piperidin-1-yl]ethyl}-cyclohexyl)-4,4,4-trifluoro-butyramide] returned a melting point of 200 °C. Also, at human D2 receptor, the Ki was 253 nM. Moreover, the Ki at human D3 receptor stood at 7.64 nM. Further, the Ki at human 5-HT2A receptor came out at 119 nM.
In the case of `CC(C)CCC(=O)N[C@H]1CC[C@H](CCN2CCC(c3cccc4c3CCO4)CC2)CC1` [Example 75, 4-Methyl-pentanoic acid trans-(4-{2-[4-(2,3-dihydro-benzofuran-4-yl)-piperidin-1-yl]-ethyl}-cyclohexyl)-amide], the melting point came out at 188 °C. For the same compound, the Ki at human D2 receptor worked out at 1070 nM. The Ki on human D3 receptor was found to be 9.97 nM. Besides, the Ki at human 5-HT2A receptor stood at 72.9 nM.
The compound `CCCCC(=O)N[C@H]1CC[C@H](CCN2CCC(c3cccc4c3CCO4)CC2)CC1` [Example 76, Pentanoic acid trans-(4-{2-[4-(2,3-dihydro-benzofuran-4-yl)-piperidin-1-yl]-ethyl}-cyclohexyl)-amide] gave a melting point of 186 °C. Besides, the Ki on human D2 receptor was determined as 411 nM. Also, at human D3 receptor, the Ki turned out to be 4.57 nM. Besides, the Ki on human 5-HT2A receptor amounted to 103 nM.

A word on the melting point: it is the temperature of the solid-liquid transition. The term Ki denotes a dissociation constant, usually derived from enzyme kinetics or from competition with a known ligand.
